Experimental findings from patent publication US20230286947A1, “COMPLEMENT FACTOR B INHIBITOR, AND PHARMACEUTICAL COMPOSITION, PREPARATION METHOD AND USE THEREOF” (SHANGHAI MEIYUE BIOTECH DEVELOPMENT CO. LTD, priority 2020, published 2023) are described below.

In series [1] the target is Complement factor B (Homo sapiens, UniProt P00751). Nature of the series: Optical surface plasmon resonance (SPR) binding capacity assay. To be noted: for Rmax (RU): test compound 500 μM, 25° C., 1:1 binding model. Here is the method: An SPR experiment was carried out at 25° C. In the experiment, a PBS buffer supplemented with 0.05% (v/v) P20 and 5% DMSO was used as a running buffer, and the analytical instrument Biacore 8K of GE Healthcare was used. A CM7 ship (GE Healthcare) was activated with 400 mM EDC and 100 mM NHS at a flow rate of 30 μL/min for 420 s. […] Then the assay chip was treated with 1 M ethanolamine hydrochloride at a flow rate of 10 μL/min for 300 s for chip blocking. The concentration of the test compound was 500 μM, the binding time was 120 s, and the dissociation time was 300 s. Data analysis was performed using a 1:1 binding model (Biacore Insight Evalution Software, Version 2.0.15.12933).

The target of series [2] is T1, complement factor B in human serum (Homo sapiens, UniProt P00751).
T1 construct: from tissue; host or cells: normal human serum (NHS)
Nature of the series: Complement hemolytic activity assay (rabbit erythrocytes, normal human serum). The following applies: rabbit erythrocytes, normal human serum, 37° C.; read-out: Hemolysis IC50. Type of series: cell-based. Here is the method: The hemolysis experiment was carried out by referring to the description in Xuan Yuan et al., Haematologica. […] Prior to the experiment, the optimal concentration of normal human serum (NHS) required to achieve 100% lysis of rabbit erythrocytes (REs) was obtained by titration testing. […] REs (collected from healthy Japanese big-ear white rabbits) freshly suspended in a GVBO buffer comprising 10 mM Mg-EGTA were added to a final concentration of 1×10^8 cells/mL and incubated at 37° C. for 30 min. A GVBO buffer comprising 10 mM Mg-EGTA and comprising NHS and RE but no test compound was used as a positive control group (100% lysis). A GVBO buffer comprising 10 mM Mg-EGTA and comprising inactivated NHS (heated at 56° C. for 30 min or at 65° C. for 5 min) and RE but no test compound was used as a negative control group (0% lysis). The samples were centrifuged at 2000 g for 5 min, and the supernatant was collected. Absorbance at 415 nm (A415) was measured using a microplate reader (Molecular Devices, SpectraMax i3X). IC50 values were calculated from percent hemolysis as a function of test compound concentration by non-linear regression.

Series [3] can be described thus: Liver microsomal stability experiment (rat). To be noted: for half-life at 1 µM: SD, pH 7.4, NADPH, read-out: MMS (rat) T1/2; for half-life at 1 µM / MMS (rat) Remaining (T = 90 min): rat liver microsomes; for liver microsomal stability (in words): statement covers rat, monkey and human liver microsomes (Table 3). It is filed as in vitro ADME. As to the method:
(§1) A 0.1 M solution of potassium dihydrogen phosphate in distilled water (comprising 1 mM ethylenediaminetetraacetic acid) was taken. Then the pH was adjusted to 7.4 with the 0.1 M solution of dipotassium phosphate in distilled water (comprising 1 mM ethylenediaminetetraacetic acid).
Rat: SD Rat Liver Microsomes, Cat. No.: LM-DS-02M, RILD Research Institute for Liver Diseases (Shanghai) Co. Ltd.
(§2) A 10 mM solution of each of the control compound and test compounds was prepared in DMSO. Then 10 μL of the solution was added to 190 μL of acetonitrile to form a 0.5 mM mother liquor. 1.5 μL of the 0.5 mM compound mother liquor was measured out, and […] of 20 mg/mL liver microsomes and 479.75 μL of the buffer were added. (The actual preparation amount can be adjusted according to use).
(§3) A 10 mg/mL solution of reduced coenzyme II (NADPH) was prepared in the buffer. A 96-well plate was placed on ice. Wells corresponding to different time points (0, 10, 30, 60 and 90 min, Non-NADPH) were set for each compound. 30 μL of the working solution was added to each well. For 0 min wells, 155 μL of glacial acetonitrile solution (the internal standard concentration was 1 μM) was added first, and after the mixtures were well mixed using a pipet, 15 μL of NADPH (10 mg/mL) was added. Before the reactions were started, the 96-well plate was pre-incubated on a microplate shaker at 37° C. for 5 min. Then 15 μL of NADPH (10 mg/mL) was added to each well to start the metabolic reactions. After the reactions were carried out for 10, 30, 60 and 90 min, 155 μL of glacial acetonitrile solution (the internal standard concentration was 1 μM) was added to the corresponding wells to terminate the reactions. After 90 min, the reaction in the Non-NADPH system was terminated by adding 155 μL of glacial acetonitrile solution (the internal standard concentration was 1 μM). After the reaction was completed, the 96-well plate was shaken on a microplate shaker (600 rpm) for 10 min and then centrifuged at 4° C. at 4000 g for 15 min. 50 μL of the supernatant was added to a new 2 mL 96-well plate, and 300 μL of deionized water was added. The mixture was analyzed on an AB SCIEX ExionLC-Triple Quad 5500 high performance liquid chromatograph-mass spectrometer. The Analyst 1.6.3 software was used.

Series [4] in a line: Liver microsomal stability experiment (monkey). Type of series: in vitro ADME. To be noted: cynomolgus monkey liver microsomes; for half-life at 1 µM: pH 7.4, NADPH, read-out: MMS (monkey) T1/2. Here is the method:
as §1
Monkey: Cynomolgus Monkey Liver Microsomes, Cat. No.: LM-SXH-02M, RILD Research Institute for Liver Diseases (Shanghai) Co. Ltd.
as §2, §3

The nature of series [5]: Liver microsomal stability experiment (human). Type of series: in vitro ADME. To be noted: for MMS (human) Remaining (T = 90 min): human liver microsomes; for half-life at 1 µM: pooled liver microsomes, pH 7.4, NADPH, read-out: MMS (human) T1/2. As to the method: as §1
Human – Pooled Human Liver Microsomes (Mongolian), Cat. No.: LM-R-02M, RILD Research Institute for Liver Diseases (Shanghai) Co. Ltd.
as §2, §3

Series [6] is described as follows: PK experiment of single intragastric administration to rats. To be noted: male, Wistar Han, plasma, po, rat, 3 mg/kg, mean. Type of series: in vivo. Here is the method: Six- to nine-week-old male Wistar han rats (from Shanghai Sippe-Bk Lab Animal Co., Ltd.) were fasted overnight. Each group consisted of 3 rats, and they were given the control compound, the compound of Example 5 and the compound of Example 6, respectively, by intragastric administration at 3 mg/kg at a volume of 10 mL/kg. 0.2 mL of blood was collected from the jugular vein at each time point, anticoagulated with EDTA-K2 and immediately centrifuged at 4000 rpm at 4° C. for 5 min. The supeatant was collected. The samples were cryopreserved in a freezer at −80° C. before analysis. Time points of blood collection: before administration, 5 min 15 min, 30 min, 1 h, 2 h, 4 h, 7 h and 24 h. […] After blood collection at all of the time points was completed, the animals were euthanized. The plasma samples were analyzed by LC-MS/MS. The data were used to calculate kinetic parameters (Tmax, Cmax, T½ and AUC) in the WinNonlin software.

In series [7] the test system is Streptococcus-induced rheumatoid arthritis. Nature of the series: Streptococcus-induced rheumatoid arthritis (RA) model in rats. It is filed as in vivo, Lewis rats. The following applies: 15 mpk intragastric daily for 25 days, FIG. 3. Here is the method: In the experiment, six- to nine-week-old female Lewis rats (Beijing Vital River) were used. Each group consisted of 6 rats, and they were given the cell wall peptidoglycan complexes of Streptococcus and several other species of bacteria by intraperitoneal administration (2-3 mg per rat) on D1, and were given the control compound (15 mpk) and Example 5 (15 mpk) by intragastric administration daily for 25 consecutive days. The arthritis in rats was scored in different phases. The scoring criteria are as follows: Scoring according to the degree of lesion (redness and swelling) was performed on a scale of 0-4 points, with a maximum score of 4 for each limb and a total maximum score of 16 for each animal's limbs. The scoring criteria are as follows: 0 points: no redness and swelling; 1 point: 1-2 red and swollen interphalangeal joints; 2 points: 3-4 red and swollen interphalangeal joints; 3 points: more than 4 red and swollen interphalangeal joints; 4 points: severe redness and swelling in toes or fingers to ankle joints or wrist joints.

Structures are written as SMILES.

Sequence of Complement factor B (P00751 26-764): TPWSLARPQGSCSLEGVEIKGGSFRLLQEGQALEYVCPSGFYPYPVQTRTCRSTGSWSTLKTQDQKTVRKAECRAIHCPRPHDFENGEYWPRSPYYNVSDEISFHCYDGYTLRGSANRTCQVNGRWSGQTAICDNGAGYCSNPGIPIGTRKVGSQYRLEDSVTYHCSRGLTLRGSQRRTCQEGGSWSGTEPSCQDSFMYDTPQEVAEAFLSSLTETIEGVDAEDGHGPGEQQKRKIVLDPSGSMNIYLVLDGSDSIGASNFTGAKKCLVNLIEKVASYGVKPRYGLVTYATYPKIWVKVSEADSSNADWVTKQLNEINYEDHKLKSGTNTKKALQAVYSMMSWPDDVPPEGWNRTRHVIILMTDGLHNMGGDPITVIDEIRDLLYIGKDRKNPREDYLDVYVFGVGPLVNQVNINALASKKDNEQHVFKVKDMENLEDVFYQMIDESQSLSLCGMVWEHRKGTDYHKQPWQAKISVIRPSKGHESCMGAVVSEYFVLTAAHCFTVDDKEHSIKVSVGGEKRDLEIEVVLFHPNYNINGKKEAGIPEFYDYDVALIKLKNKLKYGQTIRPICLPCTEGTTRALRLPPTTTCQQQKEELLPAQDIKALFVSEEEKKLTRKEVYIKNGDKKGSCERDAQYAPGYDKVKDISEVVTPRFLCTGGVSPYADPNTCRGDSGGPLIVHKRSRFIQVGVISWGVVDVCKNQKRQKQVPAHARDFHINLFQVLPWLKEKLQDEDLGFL
T1 sequence (P00751 26-764): as above

For the compound `COc1cc(C)c2[nH]ccc2c1CN1CCC2(CC1c1ccc(C(=O)O)cc1)CC2(F)F` (stereo not drawn) [Example 8], in series [1], the “Rmax (RU)” value is on record as 47.7 RU. Besides, the IC50 in series [2] is 0.358 µM.

Take `COc1cc(C)c2[nH]ccc2c1CN1CCC(C(F)(F)F)CC1c1ccc(C(=O)O)cc1` (stereo not drawn) [Example 9]: in series [1], the “Rmax (RU)” value is reported as 23.3 RU. The half-inhibitory concentration (IC50) in series [2] is 0.725 µM.

In the case of `CCOC1CC(c2ccc(C(=O)O)cc2)N(Cc2c(OC)cc(C)c3[nH]ccc23)C2CC12` (stereo not drawn) [Example 23], the half-inhibitory concentration (IC50) in series [2] was determined as 0.853 µM.

Take `COc1cc(C)c2[nH]ccc2c1CN1CC[C@H](OCC2CCC2)C[C@H]1c1ccc(C(=O)O)cc1` [Example 6]: in series [1] (at a concentration of 500 μM), the “binding capacity to the target protein compared with the control compound” value is recorded as “significantly better than the control compound”. The “Rmax (RU)” value in series [1] turned out to be 106.5 RU. Moreover, the IC50 in series [2] came to 0.217 µM. Further, in series [3], the half-life at 1 µM came to 0.986 h, the “MMS (rat) Remaining (T = 90 min)” value is listed as 33.55% and the “liver microsomal stability (in words)” value is “more significant liver microsomal stability”. Also, in series [4], the “MMS (monkey) Remaining (T = 90 min)” value amounted to 60.37% and the half-life at 1 µM came out at 2.17 h. Further, in series [5], the “MMS (human) Remaining (T = 90 min)” value is 74.57% and the half-life at 1 µM came out at 3.96 h. In series [6], the AUC(0-inf) came to 2260 ng·h/mL, the AUC(0-t) came out at 2190 ng·h/mL, the Cmax is 1180 ng/mL and the time of peak concentration (Tmax) is 0.25 h. In series [6], this compound had a half-life of 2.28 h.

In the case of `COc1cc(C)c2[nH]ccc2c1CN1CCC2CC2[C@H]1c1ccc(C(=O)O)cc1` (stereo partly drawn) [Example 22], the half-maximal inhibitory concentration (IC50) in series [2] is 0.184 µM.

For the compound `COc1cc(C)c2[nH]ccc2c1CN1CC[C@H](OC(F)(F)F)C[C@H]1c1ccc(C(=O)O)cc1` [Example 7], the “Rmax (RU)” value in series [1] stood at 21.6 RU. Also, in series [2], the half-maximal inhibitory concentration (IC50) came to 0.228 µM.

With `COc1cc(C)c2[nH]ccc2c1CN1CC[C@H](OC2CC(F)(F)C2)C[C@H]1c1ccc(C(=O)O)cc1` [Example 16], the half-inhibitory concentration (IC50) in series [2] was 0.188 µM.

With `COc1cc(C)c2[nH]ccc2c1CN1CCC(C(F)F)CC1c1ccc(C(=O)O)cc1` (stereo not drawn) [Example 10], in series [1], the “Rmax (RU)” value is listed as 30.7 RU. For the same compound, the IC50 in series [2] was 0.611 µM.

Turning to `COc1cc(C)c2[nH]ccc2c1CN1CC[C@H](OC2CCC2)C[C@H]1c1ccc(C(=O)O)cc1` [Example 4], in series [1], the “Rmax (RU)” value is listed as 29.1 RU. For the same compound, in series [2], the half-maximal inhibitory concentration (IC50) was 0.28 µM. For the same compound, in series [3], the half-life at 1 µM was determined as 3.68 h, the “MMS (rat) Remaining (T = 90 min)” value is 72.23% and the “liver microsomal stability (in words)” value is reported as “more significant liver microsomal stability”. In addition, in series [4], the “MMS (monkey) Remaining (T = 90 min)” value was 80.68% and the half-life at 1 µM was determined as 6.07 h. In addition, in series [5], the “MMS (human) Remaining (T = 90 min)” value is listed as 84.79% and the half-life at 1 µM stood at 6.94 h.

Regarding `COc1cc(C)c2[nH]ccc2c1CN1CC[C@H](OCC2CC2)C[C@H]1c1ccc(-c2nn[nH]n2)cc1` [Example 26], the IC50 in series [2] amounted to 0.319 µM.

Turning to `COc1cc(C)c2[nH]ccc2c1CN1CCC(C)(F)CC1c1ccc(C(=O)O)cc1` (stereo not drawn) [Example 17], the IC50 in series [2] was determined as 0.391 µM.

Regarding `COc1cc(C)c2[nH]ccc2c1CN1CC[C@H](OC2CC2)C[C@H]1c1ccc(C(=O)O)cc1` [Example 3], the half-maximal inhibitory concentration (IC50) in series [2] is 0.216 µM.

`CCO[C@H]1CCN(Cc2c(OC)cc(C)c3[nH]ccc23)[C@H](c2ccc(C(=O)O)cc2)C1` [Control compound, reference compound]: in series [6], the AUC(0-inf) was determined as 2730 ng·h/mL, the AUC(0-t) worked out at 2530 ng·h/mL, the concentration peaked (Cmax) at 784 ng/mL and the Tmax was found to be 0.33 h. In series [6], this compound had a half-life of 2.42 h. In series [7], the arthritis score entry is “can improve the arthritis score”.

As for `COc1cc(C)c2[nH]ccc2c1CN1CC[C@H](OCC2CC2(F)F)C[C@H]1c1ccc(C(=O)O)cc1` (stereo partly drawn) [Example 25], the half-inhibitory concentration (IC50) in series [2] is 0.234 µM.
